# Source: patent US20050090485A1, “7-Arylsulfonamido-2,3,4,5-tetrahydro-1h-benzo'diazepine derivatives with 5ht6 receptor affinity for the reatment of cns disorders” (priority 2002, published 2005)
# Experiments:
# [1] = target: T1, human cloned 5-HT6 receptors (Homo sapiens, UniProt P50406); test: 5-HT6 receptor affinity, procedures outlined in WO98/27081; format: binding; conditions: read-out: pKi values at human cloned 5-HT6 receptors (converted)
# T1 construct: expressed in transfected cells
# Source text: Compounds can be tested following the procedures outlined in WO98/27081.
# T1 sequence (P50406 whole entry): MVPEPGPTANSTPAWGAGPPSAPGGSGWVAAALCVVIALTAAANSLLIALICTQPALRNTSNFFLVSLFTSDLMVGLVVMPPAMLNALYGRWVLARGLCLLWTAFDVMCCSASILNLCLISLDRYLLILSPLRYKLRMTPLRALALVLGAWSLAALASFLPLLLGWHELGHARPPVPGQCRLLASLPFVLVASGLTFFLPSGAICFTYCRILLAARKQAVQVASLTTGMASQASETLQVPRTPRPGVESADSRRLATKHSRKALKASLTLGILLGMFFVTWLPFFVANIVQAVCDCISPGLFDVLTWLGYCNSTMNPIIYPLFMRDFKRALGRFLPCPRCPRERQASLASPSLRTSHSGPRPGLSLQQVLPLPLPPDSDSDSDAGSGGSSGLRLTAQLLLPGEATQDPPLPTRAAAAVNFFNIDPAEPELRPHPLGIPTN
SMILES,Ki [1],melting point
"O=S(=O)(Nc1ccc2c(c1)CCNCC2)c1ccc(Br)cc1OC(F)(F)F [Example E6, 7-(4-Bromo-2-trifuoromethoxy)phenylsulfonamido-2,3,4,5-tetrahydro-1H-benzo[d]azepine]",< 3.16 nM,–
"Cl.O=S(=O)(Nc1ccc2c(c1)CCNCC2)c1ccc(Cl)cc1OC(F)(F)F [Example E12, 7-(4-Chloro-2-trifluoromethoxy)phenylsulfonamido-2,3,4,5-tetrahydro-1H-benzo[d]azepine, hydrochloride]",–,210 to 211 °C
"Cl.O=S(=O)(Nc1ccc2c(c1)CCNCC2)c1ccc(Br)cc1OC(F)(F)F [Example E11, 7-(4Bromo-2-trifluoromethoxy)phenylsulfonamido-2,3,4,5-tetrahydro-1H-benzo[d]azepine, hydrochloride]",–,231 to 233 °C
"O=S(=O)(Nc1ccc2c(c1)CCNCC2)c1ccc(Cl)cc1OC(F)(F)F [Example E10, 7(4-Chloro-2-trifluoromethoxy)phenylsulfonamido-2,3,5-tetrahydro-1H-benzo[d]azepine]",< 3.16 nM,–
